tested on: AGS cells (KRAS^G12D); assay: Detection of cell proliferation in vitro by MTT/MTS method (cell activity experiment); assay type: cell-based; details: Homo sapiens, AGS, 72 h, AGS cells; MTT/MTS; 3 days of drug treatment; read-out: AGS IC50
In short: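 After 3-day compound exposure (final DMSO 0.5%), viability of AGS (KRAS G12D) cells, plated 1000/well one day before dosing, was measured at 490 nm following 4 h MTT or MTS incubation. IC50 was fitted from dose–effect curves relative to DMSO-treated wells.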

Going from `Oc1cc2c(c(-c3ncc4c(N5C[C@H]6CC[C@@H](C5)N6)nc(OC[C@@]56CCCN5C[C@H](F)C6)nc4c3F)c1)C1CC1CC2` (stereo partly drawn) [Example 246, 7-(4-((1R,5S)-3,8-diazabicyclo[3.2.1]octan-3-yl)-8-fluoro-2-(((2R,7aS)-2-fluorotetrahydro-1H-pyrrolizin-7a(5H)-yl)methoxy)pyrido[4,3-d]pyrimidin-7-yl)-1a,2,3,7b-tetrahydro-1H-cyclopropa[a]naphthalen-5-ol] to `C#CC1CCc2cc(O)cc(-c3ncc4c(N5C[C@H]6CC[C@@H](C5)N6)nc(OC[C@@]56CCCN5C[C@H](F)C6)nc4c3F)c21` (stereo partly drawn) [Example 247, 7-(4-((1R,5S)-3,8-diazabicyclo[3.2.1]octan-3-yl)-8-fluoro-2-(((2R,7aS)-2-fluorotetrahydro-1H-pyrrolizin-7a(5H)-yl)methoxy)pyrido[4,3-d]pyrimidin-7-yl)-1-ethynyl-2,3-dihydro-1H-inden-5-ol], the IC50 falls from 109 nM to 6.1 nM (18-fold). The second is the more potent here.

First: C#CC1CCCc2cc(O)cc(-c3ncc4c(N5C[C@H]6CC[C@@H](C5)N6)nc(OC[C@@]56CCCN5C[C@H](F)C6)nc4c3F)c21 (stereo partly drawn) [Example 248, 4-(4-((1R,5S)-3,8-diazabicyclo[3.2.1]octan-3-yl)-8-fluoro-2-(((2R,7aS)-2-fluorotetrahydro-1H-pyrrolizin-7a(5H)-yl)methoxy)pyrido[4,3-d]pyrimidin-7-yl)-5-ethynyl-5,6,7,8-tetrahydronaphthalen-2-ol]
Second: Oc1cc2c(c(-c3ncc4c(N5C[C@H]6CC[C@@H](C5)N6)nc(OC[C@@]56CCCN5C[C@H](F)C6)nc4c3F)c1)C(CF)CCC2 (stereo partly drawn) [Example 262, 4-(4-((1R,5S)-3,8-diazabicyclo[3.2.1]octan-3-yl)-8-fluoro-2-(((2R,7aS)-2-fluorotetrahydro-1H-pyrrolizin-7a(5H)-yl)methoxy)pyrido[4,3-d]pyrimidin-7-yl)-5-(fluoromethyl)-5,6,7,8-tetrahydronaphthalen-2-ol]
The IC50 of the first is 46-fold lower: 6.7 nM for the first, 305 nM for the second. The first is the more potent here.

`O=C1CCCc2cc(O)cc(-c3ncc4c(N5C[C@H]6CC[C@@H](C5)N6)nc(OC[C@@]56CCCN5C[C@H](F)C6)nc4c3F)c21` [Example 249, 8-(4-((1R,5S)-3,8-diazabicyclo[3.2.1]octan-3-yl)-8-fluoro-2-(((2R,7aS)-2-fluorotetrahydro-1H-pyrrolizin-7a(5H)-yl)methoxy)pyrido[4,3-d]pyrimidin-7-yl)-6-hydroxy-3,4-dihydronaphthalen-1(2H)-one] and `O=C1CCc2cc(O)cc(-c3ncc4c(N5C[C@H]6CC[C@@H](C5)N6)nc(OC[C@@]56CCCN5C[C@H](F)C6)nc4c3F)c21` [Example 250, 7-(4-((1R,5S)-3,8-diazabicyclo[3.2.1]octan-3-yl)-8-fluoro-2-(((2R,7aS)-2-fluorotetrahydro-1H-pyrrolizin-7a(5H)-yl)methoxy)pyrido[4,3-d]pyrimidin-7-yl)-5-hydroxy-2,3-dihydro-1H-inden-1-one] cannot be ordered by IC50: greater than 2500 nM for the first, greater than 2500 nM for the second.

`[O-][S+]1CCCc2cc(O)cc(-c3ncc4c(N5C[C@H]6CC[C@@H](C5)N6)nc(OC[C@@]56CCCN5C[C@H](F)C6)nc4c3F)c21` (stereo partly drawn) [Example 251, 8-(4-((1R,5S)-3,8-diazabicyclo[3.2.1]octan-3-yl)-8-fluoro-2-(((2R,7aS)-2-fluorotetrahydro-1H-pyrrolizin-7a(5H)-yl)methoxy)pyrido[4,3-d]pyrimidin-7-yl)-6-hydroxythiochromane 1-oxide] and `[O-][S+]1CCc2cc(O)cc(-c3ncc4c(N5C[C@H]6CC[C@@H](C5)N6)nc(OC[C@@]56CCCN5C[C@H](F)C6)nc4c3F)c21` (stereo partly drawn) [Example 252, 7-(4-((1R,5S)-3,8-diazabicyclo[3.2.1]octan-3-yl)-8-fluoro-2-(((2R,7aS)-2-fluorotetrahydro-1H-pyrrolizin-7a(5H)-yl)methoxy)pyrido[4,3-d]pyrimidin-7-yl)-5-hydroxy-2,3-dihydrobenzo[b]thiophene 1-oxide] cannot be ordered by IC50: greater than 2500 nM for the first, greater than 2500 nM for the second.

Going from `C=C1CCCc2cc(O)cc(-c3ncc4c(N5C[C@H]6CC[C@@H](C5)N6)nc(OC[C@@]56CCCN5C[C@H](F)C6)nc4c3F)c21` [Example 253, 4-(4-((1R,5S)-3,8-diazabicyclo[3.2.1]octan-3-yl)-8-fluoro-2-(((2R,7aS)-2-fluorotetrahydro-1H-pyrrolizin-7a(5H)-yl)methoxy)pyrido[4,3-d]pyrimidin-7-yl)-5-methylene-5,6,7,8-tetrahydronaphthalen-2-ol] to `CC1(C)CCCc2cc(O)cc(-c3ncc4c(N5C[C@H]6CC[C@@H](C5)N6)nc(OC[C@@]56CCCN5C[C@H](F)C6)nc4c3F)c21` [Example 254, 4-(4-((1R,5S)-3,8-diazabicyclo[3.2.1]octan-3-yl)-8-fluoro-2-(((2R,7aS)-2-fluorotetrahydro-1H-pyrrolizin-7a(5H)-yl)methoxy)pyrido[4,3-d]pyrimidin-7-yl)-5,5-dimethyl-5,6,7,8-tetrahydronaphthalen-2-ol], the IC50 rises from 42 nM to 462 nM (11-fold). The first is the more potent here.

First: Oc1cc2c(c(-c3ncc4c(N5C[C@H]6CC[C@@H](C5)N6)nc(OC[C@@]56CCCN5C[C@H](F)C6)nc4c3F)c1)C1(CC2)CC1 [Example 255, 7′-(4-((1R,5S)-3,8-diazabicyclo[3.2.1]octan-3-yl)-8-fluoro-2-(((2R,7aS)-2-fluorotetrahydro-1H-pyrrolizin-7a(5H)-yl)methoxy)pyrido[4,3-d]pyrimidin-7-yl)-2′,3′-dihydrospiro[cyclopropane-1,1′-inden]-5′-ol]
Second: Oc1cc2c(c(-c3ncc4c(N5C[C@H]6CC[C@@H](C5)N6)nc(OC[C@@]56CCCN5C[C@H](F)C6)nc4c3F)c1)C1(CCC2)CC1 [Example 256, 8′-(4-((1R,5S)-3,8-diazabicyclo[3.2.1]octan-3-yl)-8-fluoro-2-(((2R,7aS)-2-fluorotetrahydro-1H-pyrrolizin-7a(5H)-yl)methoxy)pyrido[4,3-d]pyrimidin-7-yl)-3′,4′-dihydro-2′H-spiro[cyclopropane-1,1′-naphthalen]-6′-ol]
The IC50 of the first is 1.9-fold lower: 157 nM for the first, 303 nM for the second.

Going from `Oc1cc2c(c(-c3ncc4c(N5C[C@H]6CC[C@@H](C5)N6)nc(OC[C@@]56CCCN5C[C@H](F)C6)nc4c3F)c1)C(CC(F)(F)F)CC2` (stereo partly drawn) [Example 257, 7-(4-((1R,5S)-3,8-diazabicyclo[3.2.1]octan-3-yl)-8-fluoro-2-(((2R,7aS)-2-fluorotetrahydro-1H-pyrrolizin-7a(5H)-yl)methoxy)pyrido[4,3-d]pyrimidin-7-yl)-1-(2,2,2-trifluoroethyl)-2,3-dihydro-1H-inden-5-ol] to `OCC1CCc2cc(O)cc(-c3ncc4c(N5C[C@H]6CC[C@@H](C5)N6)nc(OC[C@@]56CCCN5C[C@H](F)C6)nc4c3F)c21` (stereo partly drawn) [Example 265, 7-(4-((1R,5S)-3,8-diazabicyclo[3.2.1]octan-3-yl)-8-fluoro-2-(((2R,7aS)-2-fluorotetrahydro-1H-pyrrolizin-7a(5H)-yl)methoxy)pyrido[4,3-d]pyrimidin-7-yl)-1-(hydroxymethyl)-2,3-dihydro-1H-inden-5-ol], the IC50 rises from 1850 nM to greater than 10000 nM. The first is the more potent here.

First: Oc1cc2c(c(-c3ncc4c(N5C[C@H]6CC[C@@H](C5)N6)nc(OC[C@@]56CCCN5C[C@H](F)C6)nc4c3F)c1)C(CC(F)F)CC2 (stereo partly drawn) [Example 258, 7-(4-((1R,5S)-3,8-diazabicyclo[3.2.1]octan-3-yl)-8-fluoro-2-(((2R,7aS)-2-fluorotetrahydro-1H-pyrrolizin-7a(5H)-yl)methoxy)pyrido[4,3-d]pyrimidin-7-yl)-1-(2,2-difluoroethyl)-2,3-dihydro-1H-inden-5-ol]
Second: Oc1cc2c(c(-c3ncc4c(N5C[C@H]6CC[C@@H](C5)N6)nc(OC[C@@]56CCCN5C[C@H](F)C6)nc4c3F)c1)C(CCF)CC2 (stereo partly drawn) [Example 259, 7-(4-((1R,5S)-3,8-diazabicyclo[3.2.1]octan-3-yl)-8-fluoro-2-(((2R,7aS)-2-fluorotetrahydro-1H-pyrrolizin-7a(5H)-yl)methoxy)pyrido[4,3-d]pyrimidin-7-yl)-1-(2-fluoroethyl)-2,3-dihydro-1H-inden-5-ol]
The IC50 of the first is higher: greater than 10000 nM for the first, 2630 nM for the second.

First: Oc1cc2c(c(-c3ncc4c(N5C[C@H]6CC[C@@H](C5)N6)nc(OC[C@@]56CCCN5C[C@H](F)C6)nc4c3F)c1)C(C(F)(F)F)CCC2 (stereo partly drawn) [Example 260, 4-(4-((1R,5S)-3,8-diazabicyclo[3.2.1]octan-3-yl)-8-fluoro-2-(((2R,7aS)-2-fluorotetrahydro-1H-pyrrolizin-7a(5H)-yl)methoxy)pyrido[4,3-d]pyrimidin-7-yl)-5-(trifluoromethyl)-5,6,7,8-tetrahydronaphthalen-2-ol]
Second: Oc1cc2c(c(-c3ncc4c(N5C[C@H]6CC[C@@H](C5)N6)nc(OC[C@@]56CCCN5C[C@H](F)C6)nc4c3F)c1)C(C(F)F)CCC2 (stereo partly drawn) [Example 261, 4-(4-((1R,5S)-3,8-diazabicyclo[3.2.1]octan-3-yl)-8-fluoro-2-(((2R,7aS)-2-fluorotetrahydro-1H-pyrrolizin-7a(5H)-yl)methoxy)pyrido[4,3-d]pyrimidin-7-yl)-5-(difluoromethyl)-5,6,7,8-tetrahydronaphthalen-2-ol]
The IC50 of the first is 4.6-fold lower: 417 nM for the first, 1930 nM for the second. The first is the more potent here.

`CCC1C(=O)Cc2cc(O)cc(-c3ncc4c(N5C[C@H]6CC[C@@H](C5)N6)nc(OC[C@@]56CCCN5C[C@H](F)C6)nc4c3F)c21` (stereo partly drawn) [Example 263, 7-(4-((1R,5S)-3,8-diazabicyclo[3.2.1]octan-3-yl)-8-fluoro-2-(((2R,7aS)-2-fluorotetrahydro-1H-pyrrolizin-7a(5H)-yl)methoxy)pyrido[4,3-d]pyrimidin-7-yl)-1-ethyl-5-hydroxy-1,3-dihydro-2H-inden-2-one] and `C/C=C1\C(=O)Cc2cc(O)cc(-c3ncc4c(N5C[C@H]6CC[C@@H](C5)N6)nc(OC[C@@]56CCCN5C[C@H](F)C6)nc4c3F)c21` [Example 264, (Z)-7-(4-((1R,5S)-3,8-diazabicyclo[3.2.1]octan-3-yl)-8-fluoro-2-(((2R,7aS)-2-fluorotetrahydro-1H-pyrrolizin-7a(5H)-yl)methoxy)pyrido[4,3-d]pyrimidin-7-yl)-1-ethylidene-5-hydroxy-1,3-dihydro-2H-inden-2-one] cannot be ordered by IC50: greater than 10000 nM for the first, greater than 10000 nM for the second.

From patent US20240300980A1, “HETEROCYCLIC COMPOUNDS AS KRAS INHIBITOR, AND PREPARATION THEREFOR AND USE THEREOF IN TREATMENT” (SHANGHAI KECHOW PHARMA, INC., priority 2021, published 2024)
